According to patent publication US4010161A, “Piperazinoethyl-N-(2,3-dimethyl-5-oxo-1-phenyl-3Δ-pyrazolin- 4-yl)carbamates” (Synthelabo, priority 1973, dated 1977):
Structures can show the parent of a compound that is named as a salt.

Assays:
[1] = Acute toxicity, 50% lethal dose in mice; conditions: mouse, in vivo, po; mice (CD1 strain, both sexes), per os; 50% lethal dose calculated graphically
Method: The experiments were carried out on mice of the CDl strain, of both sexes, and the 50% lethal doses were calculated graphically.

CD1 mice, tail-pinching = assay: Haffner tail-pinching test; type: in vivo; conditions: Mus musculus, po, per os, AD50 = 50% active dose
Description: (§1) This effect was investigated in accordance with three conventional experimental procedures.
c. Tail-pinching test on CD1 mice, using the method of Haffner (Deutsch. med. Wachr., 1959, 55, 731).

[2] = system: pain induced, in CDl mice, by the intraperitoneal injection of acetic acid; assay: Koster test: pain induced by intraperitoneal injection of acetic acid; type: in vivo; conditions: Mus musculus, po, per os, AD50 = 50% active dose
Description: as §1
a. Effect against pain induced, in CDl mice, by the intraperitoneal injection of acetic acid, using the method described by Koster and colleagues (Fed. Proc., 1959, 18, 42) and modified by Peterfalvi, Branceni and colleagues, (Med. Pharmacol. exp., 1966, 15, 254).

[3] = system: oedema induced by carragenine in SJ rats; assay: Oedema induced by carragenine (anti-inflammatory effect); type: in vivo; conditions: Rattus norvegicus, po, per os, AD40 = 40% active dose, read-out: Inflammation induced by carragenine AD40
Description: The test of oedema induced by carragenine in SJ rats, in accordance with the technique of Winter and colleagues, (Proc. Soc. exp. Biol. Med., 1962, III, 544) was used. The effects of the compounds of the invention are markedly lower than that of the reference product.

Solubility in water = type: physicochemical

Cc1c(NC(=O)OCCN2CCN(c3cccc(Cl)c3)CC2)c(=O)n(-c2ccccc2)n1C [SLB-207, 2-(4-m-Chlorophenyl-piperazino)-ethyl N-(2,3-dimethyl-5-oxo-1-phenyl-3Δ-pyrazolin-4-yl)-carbamate]
LD50 [1]: 990 mg/kg | ED50 (CD1 mice, tail-pinching): 10 mg/kg | ED50 [2]: 8 mg/kg | ED40 [3]: 100 mg/kg

Cc1c(NC(=O)OCCN2CCN(c3cccc(SC(F)(F)F)c3)CC2)c(=O)n(-c2ccccc2)n1C [SLB-208, 2-(4-m-Trifluoromethylthiophenyl-piperazino)-ethyl N-(2,3-dimethyl-5-oxo-1-phenyl-3Δ-pyrazolin-4-yl)-carbamate]
LD50 [1]: > 1000 mg/kg | ED50 [2]: 17 mg/kg | ED40 [3]: 76 mg/kg

Cc1c(NC(=O)OCCN2CCN(c3cccc(Cl)c3)CC2)c(=O)n(-c2ccccc2)n1C [2-(4-m-chlorophenyl-piperazino)-ethyl N-(2,3-dimethyl-5-oxo-1-phenyl-3Δ-pyrazolin-4-yl)-carbamate tartrate]
solubility in water (Solubility in water): very soluble in water

Cc1c(N(C)C)c(=O)n(-c2ccccc2)n1C [Aminopyrine, reference compound]
ED50 (CD1 mice, tail-pinching): 75 mg/kg | ED50 [2]: 40 mg/kg | ED40 [3]: 50 mg/kg

Cc1ccc(N2CCN(CCOC(=O)Nc3c(C)n(C)n(-c4ccccc4)c3=O)CC2)cc1 [SLB-209, 2-(4-p-Tolyl-piperazino)-ethyl N-(2,3-dimethyl-5-oxo-1-phenyl-3Δ-pyrazolin-4-yl)-carbamate]
LD50 [1]: 410 mg/kg | ED50 (CD1 mice, tail-pinching): 15 mg/kg | ED50 [2]: 25 mg/kg | ED40 [3]: > 100 mg/kg

Cc1c(NC(=O)OCCN2CCN(c3ccccc3)CC2)c(=O)n(-c2ccccc2)n1C [SLB-197, 2-(4-Phenyl-piperazino)-ethyl N-(2,3-dimethyl-5-oxo-1-phenyl-3Δ-pyrazolin-4-yl)-carbamate]
LD50 [1]: 400 mg/kg | ED50 [2]: 30 mg/kg | ED40 [3]: > 100 mg/kg

Cc1c(NC(=O)OCCN2CCN(c3cccc(C(F)(F)F)c3)CC2)c(=O)n(-c2ccccc2)n1C [SLB-186, 2-(4-m-Trifluoromethylphenyl-piperazino)-ethyl N-(2,3-dimethyl-5-oxo-1-phenyl-3Δ-pyrazolin-4-yl)-carbamate hydrochloride]
LD50 [1]: 2000 mg/kg | ED50 (CD1 mice, tail-pinching): 10 mg/kg | ED50 [2]: 8 mg/kg | ED40 [3]: 100 mg/kg

Cc1c(NC(=O)OCCN(C)C)c(=O)n(-c2ccccc2)n1C [SLB-215, 2-Dimethylamino-ethyl N-(2,3-dimethyl-5-oxo-1-phenyl-3Δ-pyrazolin-4-yl)-carbamate]
LD50 [1]: > 1000 mg/kg | ED50 [2]: 60 mg/kg | ED40 [3]: > 100 mg/kg | solubility in water (Solubility in water): very soluble in water
